According to patent publication US11192877B2, “3-(5-hydroxy-1-oxoisoindolin-2-yl)piperidine-2,6-dione derivatives and uses thereof” (Novartis AG, priority 2018, dated 2021):
Where a name gives a salt, the structure may show the parent alone. Read-outs that look alike come from different tables or passages of the source.

Biological target: IKZF2 (Helios) (Homo sapiens, UniProt Q96SW2+Q9UKS7)
Experiment: Prolabel quantification of IKZF2 protein levels in 293GT cells
Type: cell-based
Details: for IKZF2 % protein reduction at 10 µM: 24 h, read-out: IKZF2 % protein reduction at 10 μM, 24 h
[1] = Pro-label assay, 293GT cells, 10 μM

Chain of IKZF2 (Helios) (Q9UKS7 whole entry): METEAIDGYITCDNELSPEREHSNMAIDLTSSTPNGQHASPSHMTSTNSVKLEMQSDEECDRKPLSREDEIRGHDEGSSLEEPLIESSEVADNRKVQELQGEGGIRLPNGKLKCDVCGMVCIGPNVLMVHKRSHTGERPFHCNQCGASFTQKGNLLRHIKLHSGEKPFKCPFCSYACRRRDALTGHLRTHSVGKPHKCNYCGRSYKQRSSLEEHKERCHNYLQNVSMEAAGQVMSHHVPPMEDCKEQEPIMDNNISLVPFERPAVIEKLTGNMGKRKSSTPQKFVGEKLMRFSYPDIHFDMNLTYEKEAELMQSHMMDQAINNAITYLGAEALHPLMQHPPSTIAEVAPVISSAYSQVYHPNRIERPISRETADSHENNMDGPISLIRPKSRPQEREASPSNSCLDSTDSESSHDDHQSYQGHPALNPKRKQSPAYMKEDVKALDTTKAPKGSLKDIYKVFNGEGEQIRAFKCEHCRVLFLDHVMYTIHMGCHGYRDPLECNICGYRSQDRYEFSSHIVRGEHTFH
Chain of IKZF2 (Helios) (Q96SW2 whole entry): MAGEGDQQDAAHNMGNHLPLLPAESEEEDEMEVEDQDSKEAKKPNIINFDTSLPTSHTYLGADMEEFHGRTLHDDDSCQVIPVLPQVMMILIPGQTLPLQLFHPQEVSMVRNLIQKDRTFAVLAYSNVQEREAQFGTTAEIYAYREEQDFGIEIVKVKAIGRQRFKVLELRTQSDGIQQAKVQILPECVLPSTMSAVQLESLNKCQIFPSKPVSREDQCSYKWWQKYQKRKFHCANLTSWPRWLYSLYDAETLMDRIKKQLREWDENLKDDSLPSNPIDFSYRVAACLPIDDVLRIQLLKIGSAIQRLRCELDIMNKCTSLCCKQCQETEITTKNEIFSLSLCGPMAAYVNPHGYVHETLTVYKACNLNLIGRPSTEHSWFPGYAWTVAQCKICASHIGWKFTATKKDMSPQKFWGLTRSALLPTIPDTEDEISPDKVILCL
Chain of IKZF2 (Helios) (Q16531 whole entry partner): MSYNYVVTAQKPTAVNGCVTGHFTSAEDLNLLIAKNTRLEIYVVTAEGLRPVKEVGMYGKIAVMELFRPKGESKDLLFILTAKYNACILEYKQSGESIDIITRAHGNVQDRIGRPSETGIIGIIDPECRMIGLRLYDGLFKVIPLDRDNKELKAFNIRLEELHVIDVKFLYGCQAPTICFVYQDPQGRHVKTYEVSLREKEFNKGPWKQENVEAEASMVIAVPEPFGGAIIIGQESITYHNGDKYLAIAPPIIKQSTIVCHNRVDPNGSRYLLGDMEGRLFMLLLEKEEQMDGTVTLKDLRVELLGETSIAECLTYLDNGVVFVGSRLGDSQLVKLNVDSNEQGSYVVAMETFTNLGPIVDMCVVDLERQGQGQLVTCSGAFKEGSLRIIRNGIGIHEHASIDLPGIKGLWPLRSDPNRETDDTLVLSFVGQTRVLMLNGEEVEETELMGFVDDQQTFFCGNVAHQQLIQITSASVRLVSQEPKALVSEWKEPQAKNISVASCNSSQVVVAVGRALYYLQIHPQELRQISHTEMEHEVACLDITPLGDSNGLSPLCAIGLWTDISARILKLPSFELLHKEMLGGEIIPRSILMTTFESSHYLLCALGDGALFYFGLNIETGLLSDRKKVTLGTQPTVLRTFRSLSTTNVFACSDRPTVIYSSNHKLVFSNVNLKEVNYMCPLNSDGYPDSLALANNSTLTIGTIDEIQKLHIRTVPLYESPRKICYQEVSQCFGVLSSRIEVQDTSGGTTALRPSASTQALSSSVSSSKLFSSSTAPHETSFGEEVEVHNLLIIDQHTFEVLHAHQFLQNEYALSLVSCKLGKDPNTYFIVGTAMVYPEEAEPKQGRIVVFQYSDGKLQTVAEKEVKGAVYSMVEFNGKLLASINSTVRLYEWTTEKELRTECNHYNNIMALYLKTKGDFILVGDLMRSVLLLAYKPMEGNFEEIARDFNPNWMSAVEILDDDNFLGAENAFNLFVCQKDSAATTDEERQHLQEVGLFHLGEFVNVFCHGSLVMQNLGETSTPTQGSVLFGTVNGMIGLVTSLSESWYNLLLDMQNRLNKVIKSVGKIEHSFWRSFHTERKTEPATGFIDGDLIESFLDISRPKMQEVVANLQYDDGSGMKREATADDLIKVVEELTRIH

Compound	IKZF2 % protein reduction at 10 µM [1] [%]	other results
3-(1-oxo-5-(((1S,2S)-2-phenoxycyclohexyl)oxy)isoindolin-2-yl)piperidine-2,6-dione and 3-(1-oxo-5-(((1R,2R)-2-phenoxycyclohexyl)oxy)isoindolin-2-yl)piperidine-2,6-dione [I-19]		IKZF2 % protein reduction at 10 μM, 24 h [1]: 10%
CCN(CC)C1CC(C)(C)CC1Oc1ccc2c(c1)CN(C1CCC(=O)NC1=O)C2=O (mixture of isomers) [I-172, Mixture of 3-(5-(((1S,2S)-2-(diethylamino)-4,4-dimethylcyclopentyl)oxy)-1-oxoisoindolin-2-yl)piperidine-2,6-dione and 3-(5-(((1R,2R)-2-(diethylamino)-4,4-dimethylcyclopentyl)oxy)-1-oxoisoindolin-2-yl)piperidine-2,6-dione]	58	
CN1CC[C@H]2CC[C@H](Oc3ccc4c(c3)CN(C3CCC(=O)NC3=O)C4=O)[C@H]21 (relative stereo) [I-3, 3-(5-(((3aR*,6S*,6aS*)-1-methyloctahydrocyclopenta[b]pyrrol-6-yl)oxy)-1-oxoisoindolin-2-yl)piperidine-2,6-dione]	40	
O=C1CCC(N2Cc3cc(O[C@@H]4CCCC[C@@H]4O)ccc3C2=O)C(=O)N1 (relative stereo) [I-37, 3-(5-(((1R*, 2S*)-2-hydroxycyclohexyl)oxy)-1-oxoisoindolin-2-yl)piperidine-2,6-dione]	0	
O=C1CCC(N2Cc3cc(O[C@H]4CC[C@@H]4NCc4ccccc4)ccc3C2=O)C(=O)N1 (single isomer, unassigned) [I-44]	42	
CC1(C#N)CC(CN[C@H]2CCCC[C@@H]2Oc2ccc3c(c2)CN(C2CCC(=O)NC2=O)C3=O)C1 (single isomer, unassigned) [I-94]	84	
COC1CC(CNC2CCCCC2Oc2ccc3c(c2)CN(C2CCC(=O)NC2=O)C3=O)C1 (single isomer, unassigned) [I-99]	86	
COC1CC(CNC2CCCCC2Oc2ccc3c(c2)CN(C2CCC(=O)NC2=O)C3=O)C1 (single isomer, unassigned) [I-100]		IKZF2 % protein reduction at 10 μM, 24 h [1]: 86%
CO[C@@H]1CCC[C@H]1N[C@H]1CCCC[C@@H]1Oc1ccc2c(c1)CN(C1CCC(=O)NC1=O)C2=O (single isomer, unassigned) [I-118]	67	
CO[C@H]1CCC[C@@H]1N[C@H]1CCCC[C@@H]1Oc1ccc2c(c1)CN(C1CCC(=O)NC1=O)C2=O (single isomer, unassigned) [I-119]	59	
O=C1CCC(N2Cc3cc(OC4CCCCC4N4CCC(F)(F)C4)ccc3C2=O)C(=O)N1 (single isomer, unassigned) [I-134, 3-(5-((2-(3,3-difluoropyrrolidin-1-yl)cyclohexyl)oxy)-1-oxoisoindolin-2-yl)piperidine-2,6-dione]	56	
CCN(CC1CC(C)(C#N)C1)C1CCCC1Oc1ccc2c(c1)CN(C1CCC(=O)NC1=O)C2=O (single isomer, unassigned) [I-164]	71	
CCN(CC1CC(C)(C#N)C1)C1CCCC1Oc1ccc2c(c1)CN(C1CCC(=O)NC1=O)C2=O (single isomer, unassigned) [I-165]		IKZF2 % protein reduction at 10 μM, 24 h [1]: 72%
CC1(C)CCCN([C@H]2CCC[C@@H]2Oc2ccc3c(c2)CN(C2CCC(=O)NC2=O)C3=O)C1 (single isomer, unassigned) [I-168]	83	
CC1(C)CCCN([C@@H]2CCC[C@H]2Oc2ccc3c(c2)CN(C2CCC(=O)NC2=O)C3=O)C1 (single isomer, unassigned) [I-169]	2	
O=C1CCC(N2Cc3cc(OC4CCCC4N4CCC5(CCOC5)CC4)ccc3C2=O)C(=O)N1 (single isomer, unassigned) [I-176, 3-(5-((2-(2-oxa-8-azaspiro[4.5]decan-8-yl)cyclopentyl)oxy)-1-oxoisoindolin-2-yl)piperidine-2,6-dione]	89	
O=C1CCC(N2Cc3cc(OC4CCCC4N4CCCC5(CCC5)C4)ccc3C2=O)C(=O)N1 (single isomer, unassigned) [I-179, 3-(5-((2-(6-azaspiro[3.5]nonan-6-yl)cyclopentyl)oxy)-1-oxoisoindolin-2-yl)piperidine-2,6-dione]	85	
O=C1CCC(N2Cc3cc(OC4CCCC4N4CCC5(CCOCC5)C4)ccc3C2=O)C(=O)N1 (single isomer, unassigned) [I-183, 3-(5-((2-(8-oxa-2-azaspiro[4.5]decan-2-yl)cyclopentyl)oxy)-1-oxoisoindolin-2-yl)piperidine-2,6-dione]	84	
CO[C@@H]1CCN(C2CCCC2Oc2ccc3c(c2)CN(C2CCC(=O)NC2=O)C3=O)C1 (single isomer, unassigned) [I-192]	77	

Compound	IKZF2 % protein reduction at 10 µM [1] [%]	other results
CO[C@H]1CCN(C2CCCC2Oc2ccc3c(c2)CN(C2CCC(=O)NC2=O)C3=O)C1 (single isomer, unassigned) [I-193]	79	
O=C1CCC(N2Cc3cc(O[C@H]4CCC[C@@H]4N4CCSCC4)ccc3C2=O)C(=O)N1 (stereo in doubt) [I-184, 3-(1-oxo-5-(((1S,2S)-2-thiomorpholinocyclopentyl)oxy)isoindolin-2-yl)piperidine-2,6-dione]		IKZF2 % protein reduction at 10 µM: 38%
O=C1CCC(N2Cc3cc(O[C@H]4CCC[C@@H]4N4CCCOCC4)ccc3C2=O)C(=O)N1 (stereo in doubt) [I-185, 3-(5-(((1S,2S)-2-(1,4-oxazepan-4-yl)cyclopentyl)oxy)-1-oxoisoindolin-2-yl)piperidine-2,6-dione]	66	
N[C@H]1CCC[C@@H]1Oc1ccc2c(c1)CN(C1CCC(=O)NC1=O)C2=O (some centres unmarked) [Cmpd I-12]	65	
CCN(CC(F)F)[C@H]1CCC[C@@H]1Oc1ccc2c(c1)CN(C1CCC(=O)NC1=O)C2=O (stereo partly drawn) [I-1, 3-(5-(((1S,2S)-2-((2,2-difluoroethyl)(ethyl)amino)cyclopentyl)oxy)-1-oxoisoindolin-2-yl)piperidine-2,6-dione]	10	
O=C1CCC(N2Cc3cc(O[C@H]4CCCC[C@H]4NCc4ccccc4)ccc3C2=O)C(=O)N1 (stereo partly drawn) [I-2, 3-(5-(((1S,2R)-2-(benzylamino)cyclohexyl)oxy)-1-oxoisoindolin-2-yl)piperidine-2,6-dione]	10	
CO[C@H]1CCCC[C@@H]1Oc1ccc2c(c1)CN(C1CCC(=O)NC1=O)C2=O (stereo partly drawn) [I-4, 3-(5-(((1S,2S)-2-methoxycyclohexyl)oxy)-1-oxoisoindolin-2-yl)piperidine-2,6-dione]	25	
O=C1CCC(N2Cc3cc(O[C@H]4CCC[C@@H]4N4CC(O)C4)ccc3C2=O)C(=O)N1 (stereo partly drawn) [I-5, 3-(5-(((1S,2S)-2-(3-hydroxyazetidin-1-yl)cyclopentyl)oxy)-1-oxoisoindolin-2-yl)piperidine-2,6-dione]	60	
O=C1CCC(N2Cc3cc(O[C@@H]4CCC[C@H]4O)ccc3C2=O)C(=O)N1 (stereo partly drawn) [I-6, 3-(5-(((1R,2R)-2-hydroxycyclopentyl)oxy)-1-oxoisoindolin-2-yl)piperidine-2,6-dione]	5	
CC(C)CN[C@H]1CCCC[C@@H]1Oc1ccc2c(c1)CN(C1CCC(=O)NC1=O)C2=O (stereo partly drawn) [I-7, 3-(5-(((1S,2S)-2-(isobutylamino)cyclohexyl)oxy)-1-oxoisoindolin-2-yl)piperidine-2,6-dione]	85	
O=C1CCC(N2Cc3cc(O[C@H]4CCC[C@@H]4N4CCC(F)(F)CC4)ccc3C2=O)C(=O)N1 (stereo partly drawn) [I-8, 3-(5-(((1S,2S)-2-(4,4-difluoropiperidin-1-yl)cyclopentyl)oxy)-1-oxoisoindolin-2-yl)piperidine-2,6-dione]	50	
O=C1CCC(N2Cc3cc(O[C@H]4CCC[C@@H]4OCc4ccccc4)ccc3C2=O)C(=O)N1 (stereo partly drawn) [I-9, 3-(5-(((1S,2S)-2-(benzyloxy)cyclopentyl)oxy)-1-oxoisoindolin-2-yl)piperidine-2,6-dione]	0	
CCN(CC)[C@@H]1CCC[C@@H]1Oc1ccc2c(c1)CN(C1CCC(=O)NC1=O)C2=O (stereo partly drawn) [I-10, 3-(5-(((1S,2R)-2-(diethylamino)cyclopentyl)oxy)-1-oxoisoindolin-2-yl)piperidine-2,6-dione]	0	
O=C1CCC(N2Cc3cc(O[C@H]4CCCC[C@@H]4NCC4(C(F)(F)F)CC4)ccc3C2=O)C(=O)N1 (stereo partly drawn) [I-11, 3-(1-oxo-5-(((1S,2S)-2-(((1-(trifluoromethyl)cyclopropyl)methyl)amino)cyclohexyl)oxy)isoindolin-2-yl)piperidine-2,6-dione]	75	
CCN(CC)[C@H]1CCC[C@@H]1Oc1ccc2c(c1)CN(C1CCC(=O)NC1=O)C2=O (stereo partly drawn) [I-13, 3-(5-(((1S,2S)-2-(diethylamino)cyclopentyl)oxy)-1-oxoisoindolin-2-yl)piperidine-2,6-dione]	85	
CCN(CC)[C@H]1CCCC[C@@H]1Oc1ccc2c(c1)CN(C1CCC(=O)NC1=O)C2=O (stereo partly drawn) [I-14, 3-(5-(((1S,2S)-2-(diethylamino)cyclohexyl)oxy)-1-oxoisoindolin-2-yl)piperidine-2,6-dione]	60	
N[C@H]1CCCC[C@@H]1Oc1ccc2c(c1)CN(C1CCC(=O)NC1=O)C2=O (stereo partly drawn) [I-15, 3-(5-(((1S,2S)-2-aminocyclohexyl)oxy)-1-oxoisoindolin-2-yl)piperidine-2,6-dione hydrochloride]		IKZF2 % protein reduction at 10 µM: 50%
O=C1CCC(N2Cc3cc(O[C@H]4CCC[C@@H]4N4CC5CCC(C5)C4)ccc3C2=O)C(=O)N1 (stereo partly drawn) [I-16, 3-(5-(((1S,2S)-2-(3-azabicyclo[3.2.1]octan-3-yl)cyclopentyl)oxy)-1-oxoisoindolin-2-yl)piperidine-2,6-dione]	85	
O=C1CCC(N2Cc3cc(O[C@H]4CCC[C@@H]4N4CCC5(CC4)OCCO5)ccc3C2=O)C(=O)N1 (stereo partly drawn) [I-17, 3-(5-(((1S,2S)-2-(1,4-dioxa-8-azaspiro[4.5]decan-8-yl)cyclopentyl)oxy)-1-oxoisoindolin-2-yl)piperidine-2,6-dione]	80	
